Patent publication US9765092B2, “Tricyclic piperidine compounds” (ACTELION PHARMACEUTICALS LTD, priority 2013, dated 2017)

Biological target: human TPH1 (Homo sapiens (Human), UniProt P17752)
Test: Biochemical in vitro assay using fluorescence readout (TPH1 inhibition)
[1] = human TPH1, fluorescence readout
[2] = full length human TPH1, 40 μM L-tryptophan, 15° C., 60 minutes, fluorescence at 540 nm, mean if determined several times

Chain of human TPH1 (P17752 whole entry): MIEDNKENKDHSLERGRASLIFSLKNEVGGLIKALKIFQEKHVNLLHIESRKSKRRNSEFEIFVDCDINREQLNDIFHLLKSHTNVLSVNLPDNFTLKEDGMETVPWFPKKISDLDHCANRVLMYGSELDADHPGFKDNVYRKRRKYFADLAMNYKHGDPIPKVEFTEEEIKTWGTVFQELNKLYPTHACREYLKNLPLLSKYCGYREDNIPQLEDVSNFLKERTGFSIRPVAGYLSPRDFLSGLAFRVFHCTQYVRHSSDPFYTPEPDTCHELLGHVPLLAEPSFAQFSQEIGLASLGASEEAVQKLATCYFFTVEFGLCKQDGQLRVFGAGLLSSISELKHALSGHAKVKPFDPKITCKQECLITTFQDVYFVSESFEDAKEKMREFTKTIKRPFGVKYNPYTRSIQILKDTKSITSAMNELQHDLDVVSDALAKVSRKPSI

SMILES	IC50 [1] [nM]	IC50 [2] [nM]
COCc1ccc(C2c3c(nc4sc(C)nn34)CCN2C(=O)COc2ccc(NS(C)(=O)=O)nc2Cl)c(F)c1 (stereo not shown) [Example 1.82.1, N-(6-chloro-5-(2-(5-(2-fluoro-4-(methoxymethyl)phenyl)-2-methyl-7,8-dihydro-[1,3,4]thiadiazolo[2′,3′:2,3]imidazo[4,5-c]pyridin-6(5H)-yl)-2-oxoethoxy)pyridin-2-yl)methanesulfonamide]	17	–
CNC(=O)c1ccc(OCC(=O)N2CCc3nc4sc(C)nn4c3C2c2ncc(Cl)cc2F)c(Cl)n1 (stereo not shown) [Example 1.33.5, 6-chloro-5-(2-(5-(5-chloro-3-fluoropyridin-2-yl)-2-methyl-7,8-dihydro-[1,3,4]thiadiazolo[2′,3′:2,3]imidazo[4,5-c]pyridin-6(5H)-yl)-2-oxoethoxy)-N-methylpicolinamide]	6	–
Cc1ccccc1OCC(=O)N1CCc2nc3sccn3c2C1c1nc2ccccc2s1 (stereo not shown) [Example 6.12.2, 1-(5-(benzo[d]thiazol-2-yl)-7,8-dihydrothiazolo-[2′,3′:2,3]imidazo[4,5-c]pyridin-6(5H)-yl)-2-(o-tolyloxy)-ethanone]	115	–
CNC(=O)c1cc(F)c(C2c3c(nc4sc(C)nn34)CCN2C(=O)COc2ccc(C(F)(F)F)cc2Cl)s1 (stereo not shown) [Example 1.25.2, 5-(6-(2-(2-chloro-4-(trifluoromethyl)phenoxy)acetyl)-2-methyl-5,6,7,8-tetrahydro-[1,3,4]thiadiazolo[2′,3′:2,3]imidazo[4,5-c]pyridin-5-yl)-4-fluoro-N-methylthiophene-2-carboxamide]	10	–
Cc1nn2c3c(nc2s1)CCN(C(=O)COc1ccc(N2CCOCC2)nc1Cl)C3c1c(C)noc1C (stereo not shown) [Example 1.5.2, 2-((2-chloro-6-morpholinopyridin-3-yl)oxy)-1-(5-(3,5-dimethylisoxazol-4-yl)-2-methyl-7,8-dihydro-[1,3,4]thiadiazolo[2′,3′:2,3]imidazo[4,5-c]pyridin-6(5H)-yl)ethanone]	9	–
Cc1nn2c3c(nc2s1)CCN(C(=O)COc1ccc(N(C)CC(F)(F)F)nc1Cl)C3c1ncc(C2CC2)cc1F (stereo not shown) [Example 1.14.10, 2-((2-chloro-6-(methyl(2,2,2-trifluoroethyl)amino)pyridin-3-yl)oxy)-1-(5-(5-cyclopropyl-3-fluoropyridin-2-yl)-2-methyl-7,8-dihydro-[1,3,4]thiadiazolo[2′,3′:2,3]imidazo[4,5-c]pyridin-6(5H)-yl)ethanone]	4	–
CCc1ncccc1OCC(=O)N1CCc2nc3sccn3c2C1c1ccc(C(F)F)cc1F (stereo not shown) [Example 6.16.1, 1-(5-(4-(difluoromethyl)-2-fluorophenyl)-7,8-dihydro-thiazolo[2′,3′:2,3]imidazo[4,5-c]pyridin-6(5H)-yl)-2-((2-ethylpyridin-3-yl)oxy)ethanone]	14	–
Cc1nn2c3c(nc2s1)CCN(C(=O)COc1ccc(C(F)(F)F)nc1Cl)C3c1ccc(C2CC2)cc1F (stereo not shown) [Example 1.6.24, 2-((2-chloro-6-(trifluoromethyl)pyridin-3-yl)oxy)-1-(5-(4-cyclopropyl-2-fluorophenyl)-2-methyl-7,8-dihydro-[1,3,4]thiadiazolo[2′,3′:2,3]imidazo[4,5-c]pyridin-6(5H)-yl)ethanone]	7	–
Cc1nn2c3c(nc2s1)CCN(C(=O)COc1ccc(C(=O)N(C)C)nc1Cl)C3c1cccc(F)c1F (stereo not shown) [Example 1.62.1, 6-chloro-5-(2-(5-(2,3-difluorophenyl)-2-methyl-7,8-dihydro-[1,3,4]thiadiazolo[2′,3′:2,3]imidazo[4,5-c]pyridin-6(5H)-yl)-2-oxoethoxy)-N,N-dimethylpicolinamide]	65	–
CCc1nc(NS(C)(=O)=O)ccc1OCC(=O)N1CCc2nc3sc(C)nn3c2C1c1sccc1F (stereo not shown) [Example 1.71.2, N-(6-ethyl-5-(2-(5-(3-fluorothiophen-2-yl)-2-methyl-7,8-dihydro-[1,3,4]thiadiazolo[2′,3′:2,3]imidazo[4,5-c]pyridin-6(5H)-yl)-2-oxoethoxy)pyridin-2-yl)methanesulfonamide]	7	–
Cc1nn2c3c(nc2s1)CCN(C(=O)COc1cnc(N(C)C)nc1Cl)C3c1sccc1F (stereo not shown) [Example 1.23.11, 2-((4-chloro-2-(dimethylamino)pyrimidin-5-yl)oxy)-1-(5-(3-fluorothiophen-2-yl)-2-methyl-7,8-dihydro-[1,3,4]thiadiazolo[2′,3′:2,3]imidazo[4,5-c]pyridin-6(5H)-yl)ethanone]	6	–
Cc1nn2c3c(nc2s1)CCN(C(=O)COc1ccc(N(C)C)nc1Cl)C3c1ccc(C2CC2)cc1F (stereo not shown) [Example 1.6.22, 2-((2-chloro-6-(dimethylamino)pyridin-3-yl)oxy)-1-(5-(4-cyclopropyl-2-fluorophenyl)-2-methyl-7,8-dihydro-[1,3,4]thiadiazolo[2′,3′:2,3]imidazo[4,5-c]pyridin-6(5H)-yl)ethanone]	3	–
Cc1nn2c3c(nc2s1)CCN(C(=O)COc1ccc(N2CCNCC2=O)nc1Cl)C3c1ccc(Cl)cc1F (stereo not shown) [Example 1.4.35, 1-(6-chloro-5-(2-(5-(4-chloro-2-fluorophenyl)-2-methyl-7,8-dihydro-[1,3,4]thiadiazolo[2′,3′:2,3]imidazo[4,5-c]pyridin-6(5H)-yl)-2-oxoethoxy)pyridin-2-yl)piperazin-2-one]	–	6
Cc1ccc(C2c3c(nc4sc(CF)nn34)CCN2C(=O)COc2ccc(NS(C)(=O)=O)nc2Cl)c(F)c1 (stereo not shown) [Example 7.3.1, N-(6-chloro-5-(2-(5-(2-fluoro-4-methylphenyl)-2-(fluoromethyl)-7,8-dihydro-[1,3,4]thiadiazolo[2′,3′:2,3]imidazo[4,5-c]pyridin-6(5H)-yl)-2-oxoethoxy)pyridin-2-yl)methanesulfonamide]	8	–
COc1ccc(C2c3c(nc4sccn34)CCN2C(=O)COc2ccc3ccncc3c2)c(F)c1 (stereo not shown) [Example 6.3.3, 1-(5-(2-fluoro-4-methoxyphenyl)-7,8-dihydrothiazolo[2′,3′:2,3]imidazo[4,5-c]pyridin-6(5H)-yl)-2-(isoquinolin-7-yloxy)ethanone]	4	–
Cc1nn2c3c(nc2s1)CCN(C(=O)COc1ccc(N2CCOCC2)nc1Cl)C3c1cc(C(C)(C)O)cs1 (stereo not shown) [Example 1.20.1, 2-((2-chloro-6-morpholinopyridin-3-yl)oxy)-1-(5-(4-(2-hydroxypropan-2-yl)thiophen-2-yl)-2-methyl-7,8-dihydro-[1,3,4]thiadiazolo[2′,3′:2,3]imidazo[4,5-c]pyridin-6(5H)-yl)ethanone]	12	–
Cc1nn2c3c(nc2s1)CCN(C(=O)COc1ccc(C(F)(F)F)cc1Cl)C3c1cnc(N(C)C)s1 (stereo not shown) [Example 1.22.5, 2-(2-Chloro-4-(trifluoromethyl)phenoxy)-1-(5-(2-(dimethylamino)thiazol-5-yl)-2-methyl-7,8-dihydro-[1,3,4]thiadiazolo[2′,3′:2,3]imidazo[4,5-c]pyridin-6(5H)-yl)ethanone]	–	130
Cc1nn2c3c(nc2s1)CCN(C(=O)COc1ccc(N2CCOCC2)nc1Cl)C3c1nc(C(=O)N(C)C)cs1 (stereo not shown) [Example 1.18.1, 2-(6-(2-((2-chloro-6-morpholinopyridin-3-yl)oxy)acetyl)-2-methyl-5,6,7,8-tetrahydro-[1,3,4]thiadiazolo[2′,3′:2,3]imidazo[4,5-c]pyridin-5-yl)-N,N-dimethylthiazole-4-carboxamide]	14	–
Cc1nn2c3c(nc2s1)CCN(C(=O)COc1ccc(N2CCCC2)nc1C)C3c1ccc(C2CC2)cc1F (stereo not shown) [Example 1.6.16, 1-(5-(4-cyclopropyl-2-fluorophenyl)-2-methyl-7,8-dihydro-[1,3,4]thiadiazolo[2′,3′:2,3]imidazo[4,5-c]pyridin-6(5H)-yl)-2-((2-methyl-6-(pyrrolidin-1-yl)pyridin-3-yl)oxy)ethanone]	13	–
CCc1nc(C(F)F)ccc1OCC(=O)N1CCc2nc3sc(C)nn3c2C1c1ccc(Cl)cc1F (stereo not shown) [Example 1.4.6, 1-(5-(4-chloro-2-fluorophenyl)-2-methyl-7,8-dihydro-[1,3,4]thiadiazolo[2′,3′:2,3]imidazo[4,5-c]pyridin-6(5H)-yl)-2-((6-(difluoromethyl)-2-ethylpyridin-3-yl)oxy)ethanone]	11	–
Cc1nn2c3c(nc2s1)CCN(C(=O)COc1ccc(N2CCOCC2)cc1Cl)C3c1c(C)noc1C (stereo not shown) [Example 1.5.1, 2-(2-chloro-4-morpholinophenoxy)-1-(5-(3,5-dimethylisoxazol-4-yl)-2-methyl-7,8-dihydro[1,3,4]thiadiazolo[2′,3′:2,3]imidazo[4,5-c]pyridin-6(5H)-yl)ethanone]	22	–
COc1nc(NS(C)(=O)=O)ccc1OCC(=O)N1CCc2nc3sc(C)nn3c2[C@@H]1c1ncc(C)cc1F [Example 1.31.20, (R)-N-(5-(2-(5-(3-fluoro-5-methylpyridin-2-yl)-2-methyl-7,8-dihydro-[1,3,4]thiadiazolo[2′,3′:2,3]imidazo[4,5-c]pyridin-6(5H)-yl)-2-oxoethoxy)-6-methoxypyridin-2-yl)methanesulfonamide]	77	–
Cc1nn2c3c(nc2s1)CCN(C(=O)COc1ccc(N2CC4CC2CO4)nc1Cl)C3c1ccc(Cl)cc1F (stereo not shown) [Example 1.4.33, 2-((6-(2-Oxa-5-azabicyclo[2.2.1]heptan-5-yl)-2-chloropyridin-3-yl)oxy)-1-(5-(4-chloro-2-fluorophenyl)-2-methyl-7,8-dihydro-[1,3,4]thiadiazolo[2′,3′:2,3]imidazo[4,5-c]pyridin-6(5H)-yl)ethanone]	–	2
CCc1nc(N2CCCS2(=O)=O)ccc1OCC(=O)N1CCc2nc3sc(C(F)F)nn3c2C1c1ccc(Cl)cc1F (stereo not shown) [Example 8.1.3, 1-(5-(4-chloro-2-fluorophenyl)-2-(difluoromethyl)-7,8-dihydro-[1,3,4]thiadiazolo[2′,3′:2,3]imidazo[4,5-c]pyridin-6(5H)-yl)-2-((6-(1,1-dioxidoisothiazolidin-2-yl)-2-ethylpyridin-3-yl)oxy)ethanone]	7	–
CNS(=O)(=O)Nc1ccc(OCC(=O)N2CCc3nc4sc(C)nn4c3C2c2ccc(Cl)cc2F)c(Cl)n1 (stereo not shown) [Example 1.4.52, N-(6-chloro-5-(2-(5-(4-chloro-2-fluorophenyl)-2-methyl-7,8-dihydro-[1,3,4]thiadiazolo[2′,3′:2,3]imidazo[4,5-c]pyridin-6(5H)-yl)-2-oxoethoxy)pyridin-2-yl)-N′-methyl-sulfamide]	38	–
